Assay [1] relates to Peripheral blood mononuclear cells. In words: Mixed lymphocyte reaction (MLR) test. It counts as cell-based, human. Conditions: Homo sapiens, PBMC; Table 1; 50% suppression of the MLR. On the procedure: (§1) Pteridine derivatives were first dissolved (10 mM) in dimethylsulfoxide (hereinafter referred as DMSO) and further diluted in culture medium before use for the following in vitro experiments. The commercially available culture medium consisted of RPMI-1640+10% foetal calf serum (FCS). Some pteridine derivatives described the previous examples were tested in the following lymphocyte activation tests:
(§2) Peripheral blood mononuclear cells (hereinafter referred as PBMC) were isolated from heparinized peripheral blood by density gradient centrifugation over Lymphoprep (Nycomed, Maorstua, Norway). Allogeneic PBMC or Eppstein-Barr Virus-transformed human B cells [commercially available under the trade name RPMI1788 (ATCC name CCL156)] which strongly express B7-1 and B7-2 antigens were used as stimulator cells after irradiation with 30 Gy. MLR was performed in triplicate wells. After 5 days incubation at 37° C., 1 μCi [^3H]-thymidine was added to each cup. After a further 16 hours incubation, cells were harvested and counted in a β-counter. Inhibition of proliferation by a compound (drug) described in some of the previous examples was counted using the formula:
[formula] wherein cpm is the thymidine count per minute. The MLR assay is regarded by those skilled in the art as an in vitro analogue of the transplant rejection since it is based on the recognition of allogeneic major histocompatibility antigens on the stimulator leukocytes, by responding lymphocytes. Assays for CD3 and CD 28
Pteridine derivatives were first dissolved (10 mM) in dimethylsulfoxide (hereinafter referred as DMSO) and further diluted in culture medium before use for the following in vitro experiments. The commercially available culture medium consisted of RPMI-1640+10% foetal calf serum (FCS). Some pteridine derivatives described in the previous examples (as indicated in table 3 below) were tested in the following mixed lymphocyte reaction (MLR) assay.
as §2, with “CCL156)]which” for “CCL156)] which”
[formula] wherein cpm is the thymidine count per minute. The MLR assay is regarded by those skilled in the art as an in vitro analogue of the transplant rejection since it is based on the recognition of allogeneic major histocompatibility antigens on the stimulator leukocytes, by responding lymphocytes.

Assay [2] deals with Highly purified T cells stimulated by anti-CD28 mAb. As to the kind of experiment: CD28 assay: T-cell proliferation stimulated by anti-CD28 mAb + PMA (BrdU). Format: cell-based, human. Conditions: Homo sapiens; 50% reduction in T-cell proliferation. On the procedure: as §1
(§3) T cells were purified by removing non-T cells. Briefly, monocytes were removed by cold agglutination. The resulting lymphoid cells were further purified by a cell enrichment immunocolumn [Cellect Human T commercially available from Biotex, Edmonton, Alberta, Canada)] by a process of negative selection. More than 95% of the B cells were removed with this procedure. After depletion, the resulting T cell preparation was highly purified, i.e. these cells could not be activated by phytohaemagglutinin (PHA) or rIL-2 alone at concentrations capable of stimulating RBMC prior to deletion.
(§4) Highly purified T cells (10^6/ml) were stimulated by immobilized anti-CD3 or anti-CD28 monoclonal antibodies (hereinafter referred as mAb) in the presence of phorbol myristate acetate (hereinafter referred as PMA). Anti-CD3 mAb (available from CLB, Amsterdam, Netherlands) were fixed on a 96-microwell plates by incubating the wells with 50 μl of mAb solution (1/800 dilution in culture medium). For anti-CD28 mAb (available from CLB, Amsterdam, Netherlands) 50 μl (1/650 dilution in culture medium) was added directly to the wells. Further, a 20 μl PMA (commercially available from Sigma, St. Louis, Mo., USA) solution (final concentration: 0.5 ng/ml) was added. Subsequently, 20 μl of a pteridine derivative described in the previous examples were added by serial dilution in triplicate wells. Finally 100 μl of the T-cell suspension (10^6/ml) was added. After 48-hour incubation at 37° C. in 5% CO2, 20 μl of a bromo-deuridine (hereinafter referred as BrdU) 100 μM solution (commercially available as Cell Proliferation Elisa from Boehringer-Mannheim Belgium) was added to each well. After a further overnight incubation, T-cell proliferation was measured using a calorimetric immuno-assay for qualification of cell proliferation based on the incorporation of BrdU during DNA synthesis. Optical density (hereinafter referred as OD) was measured by a Behring EL311 plate reader at 450 nm (reference wavelength: 690 nm). Inhibition of proliferation by the pteridine derivative (drug) was counted while using the formula: […]

For assay [3], the system named is Peripheral blood T cells. In words: In vivo leukocyte activation and immunosuppression whole blood assay (ConA stimulation, FACScan). On the set-up: species or system mice. Conditions: 30 mg/kg per day i.p.; for TCR+, CD69+ peripheral blood T cells after ConA: 2 hours before ConA, baseline 0.5%; for TCR+, CD69+ peripheral blood T cells after ConA / TCR+, IL-2R+ peripheral blood T cells after ConA: untreated up to 3%; for ConA-stimulated CD71 up-regulation on T cells: baseline 4.8%, untreated 9.3% and 5.5% after 1 and 2 days; for CD134 expression on peripheral blood T cells after ConA: untreated up to 6.6% within 2 days, baseline […]. On the procedure:
Inbred mice (e.g. AKR strain), weighting from 20 to 30 g, were stimulated by intraperitoneal injection with mitogens specific for T cells (e.g. Concanavalin A, hereinafter referred as ConA, 500 μg per mouse), B cells or monocytes/macrophages (e.g. LPS 20 μg per mouse). […] Peripheral blood was collected 24, 36, 48, and respectively 72 hours after stimulation for immune fluorescence staining and FACScan analysis.
FACScan analysis proceeded as follows: heparinized whole blood (50 μl) was removed of red blood cells by incubation with a lysing buffer. The remaining leukocytes were double-stained with phycoerythrin-conjugated antibodies specific for T cells (e.g. T cell receptor TCR), B cells (e.g. CD45R/B220 (commercially available from Pharmingen) or monocytes/macrophages (e.g. F4/80) (commer-cially available from Serotec) in combination with FITC-conjugated antibodies against various cell surface markers such as CD69 (early activation molecule), CD25 (IL-2 receptor), CD71 (transferring receptor), B7-1/2 (ligand for the co-stimulatory molecule CD28) and CD11b (complement receptor 3). Cells were examined by flow cytometry using CellQuest software (commercially available from Decton Dickinson).

The test system of assay [4] is Highly purified T cells stimulated by anti-CD3 mAb. In words: CD3 assay: T-cell proliferation stimulated by immobilized anti-CD3 mAb + PMA (BrdU). Format: cell-based, human. Conditions: Homo sapiens; 50% reduction in T-cell proliferation; read-out: CD 3 IC50. On the procedure: as §1, §3, §4
For assay [5], the system named is human TNF-α. In words: TNF-α assay: suppression of TNF-α production by LPS-stimulated PBMC (ELISA). It counts as cell-based. Conditions: Homo sapiens, PBMC; Table 2; LPS 1 μg/ml, 72 hours. Here is the method:
Peripheral blood mononuclear cells (herein referred as PBMC), in response to stimulation by lipopolysaccharide (LPS), a gram-negative bacterial endotoxin, produce various […], in particular human TNF-α and IL-1 β. Inhibition of the activation of PBMC can therefore be measured by the level of suppression of the production of TNF-α or IL-1 β by PBMC in response to stimulation by LPS.
(§5) Such inhibition measurement was performed as follows: PBMC were isolated from heparinized peripheral blood by density gradient centrifugation over Lymphoprep (commercially available from Nycomed, Norway). LPS was then added to the PMBC suspension in complete medium (10^6 cells/ml) at a final concentration of 1 μg/ml. The pteridine derivative to be tested was added at different concentrations (0.1 μM, 1 μM and 10 μM) and the cells were incubated at 37° C. for 72 hours in 5% CO2. The supernatants were collected, then TNF-α and/or IL-1 β concentrations were measured with respectively an anti-TNF-α antibody or an anti-IL-1 β antibody in a sandwich ELISA (Duo Set ELISA human TNFα, commercially available from R&D Systems, United Kingdom). The calorimetric reading of the ELISA was measured by a Multiskan RC plate reader (commercially available from ThermoLabsystems, Finland) at 450 nm (reference wavelength: 690 nm). Data analysis was performed with Ascent software 2.6. (also from ThermoLabsystems, Finland): a standard curve (recombinant human TNFα) was drawn and the amount (pg/ml) of each sample on the standard curve was determined.
The % suppression of human TNFα production or human IL-1 β by the pteridine derivatives of the invention (drugs) was calculated using the formula: […]
Peripheral blood mononuclear cells (herein referred as PBMC), in response to stimulation by lipopolysaccharide (hereinafter LPS), a gram-negative bacterial endotoxin, produce various […], in particular human TNF-α. Inhibition of the activation of PBMC can therefore be measured by the level of suppression of the production of TNF-α by PBMC in response to stimulation by LPS.
as §5, with “TNF-α” for “TNF-α and/or IL-1 β”, “with” for “with respectively”, “anti-TNF-α” for “anti-TNF-α antibody or an anti-IL-1 β”, “TNF-α,” for “TNFα,”, “colorimetric” for “calorimetric”
The % suppression of human TNFα production by the pteridine derivatives of the invention (drugs) was calculated using the formula: […]
For orientation: In an ELISA, binding on a coated surface is turned into a signal by an enzyme label.

The subject of assay [6] is IL-10. In words: Inhibition of the release of IL-10. It counts as cell-based. Conditions: at 0.1 μM/l. On the procedure:
(§6) 2-amino-4-morpholino-6-(3,4-dimethoxyphenyl)pteridine (a compound known from WO 00/39129) was tested, according to experimental procedures well established in the art, in the inhibition of two cytokines, IL-5 and IL-10, known to be involved in the development of asthma and other forms of severe allergic conditions.

For assay [7], the system named is B16BL/6 melanoma cells. As to the kind of experiment: Inhibition of the metastasis of melanoma cells in mice. Format: in vivo, C57BL/6 mice. Conditions: 20 mg/kg intraperitoneously, three times a week for two weeks; control group 80%. Here is the method: C57BL/6 mice were injected with 1.5×10^6 B16BL/6 melanoma cells and were divided into 2 groups. Five days after the injection of the tumor cells, the two groups of animals were administered intraperitoneously, three times a week for two subsequent weeks, either (treated group) 20 mg/kg of 2-amino-4-morpholino-6-(3,4-dimethoxyphenyl)pteridine (a compound known from WO 00/39129) or (control group) the vehicle (5% DMSO in phosphate buffered saline). At the end of the experiment, all surviving tumor-bearing mice were sacrificed and examined in order to assess the absence or presence of the black metastases in inguinal and/or para-aortic lymph nodes (macroscopic metastasis). The findings were confirmed by histology, and the experiment done twice.

Assay [8] deals with IL-5. As to the kind of experiment: Inhibition of the release of IL-5. It counts as cell-based. Conditions: at 0.1 μM/l. On the procedure: as §6

Results on five molecules are retold here after patent US7501513B2, “Immunosuppressive effects of pteridine derivatives” (4 AZA Bioscience NV, priority 2003, dated 2009).

What is called IC50 is the concentration at which inhibition is half-maximal. The term inhibition denotes how much of the control response was suppressed.

In assay [1], `CCOc1nc(N)nc2ncc(-c3ccc(OC)c(OC)c3)nc12` [Example 30, 2-amino-6-(3,4-dimethoxyphenyl)-4-ethoxy-pteridine] showed an IC50 of 0.9 µM. In addition, in assay [2], the IC50 was found to be 0.7 µM. In addition, in assay [3], the “TCR+, CD69+ peripheral blood T cells after ConA” value amounted to 1.6%; the “ConA-stimulated CD71 up-regulation on T cells” value was “baseline levels”; the “TCR+, IL-2R+ peripheral blood T cells after ConA” value stood at 1.5%; the “CD134 expression on peripheral blood T cells after ConA” value is 3.5%. In addition, the 50% inhibitory concentration (IC50) in assay [4] was found to be 0.7 µM.
As to `CCOc1nc(N)nc2ncc(-c3cccc(OC)c3)nc12` [Example 15, 2-amino-6-(m-methoxyphenyl)-4-ethoxy-pteridine], the half-maximal inhibitory concentration (IC50) in assay [1] is 8.3 µM; in assay [2], 7 µM; in assay [4] it was 20 µM; in assay [5] it was greater than 10 µM.
For `CCOc1nc(N)nc2ncc(-c3ccc(CC)cc3)nc12` [Example 25, 2-amino-6-(p-ethylphenyl)-4-ethoxy-pteridine], the IC50 in assay [1] was determined as 8.2 µM; in assay [2], 10 µM; in assay [4] it was 10 µM; in assay [5], 8.5 µM.
Regarding `COc1ccc(-c2cnc3nc(N)nc(N4CCOCC4)c3n2)cc1OC` [2-amino-4-morpholino-6-(3,4-dimethoxyphenyl)pteridine], the values for the inhibition at 0.1 µM in assay [6] and in assay [8] were 39% and 70%, respectively. Also, in assay [7], the “animals with metastases (inguinal and/or para-aortic lymph nodes)” value came out at 33%.
As for `COc1ccc(-c2cnc3nc(N)nc(OC(C)C)c3n2)cc1OC` [Example 45, 2-amino-6-(3,4-dimethoxyphenyl)-4-isopropoxypteridine], in assay [1], the IC50 is 0.4 µM. The half-inhibitory concentration (IC50) in assay [2] was found to be 1.7 µM. For the same molecule, in assay [3], the “TCR+, CD69+ peripheral blood T cells after ConA” value was determined as 2.4%; the “ConA-stimulated CD71 up-regulation on T cells” value is recorded as “baseline levels”; the “TCR+, IL-2R+ peripheral blood T cells after ConA” value is 1.7%; the “CD134 expression on peripheral blood T cells after ConA” value came to 4.2%. Moreover, the IC50 in assay [4] is 6.7 µM.
